Data taken from patent US9957272B2, “3-hydroxypyrrolidine inhibitors of 5′-methylthioadenosine phosphorylase and nucleosidase” (priority 2009, dated 2018).
Like-named read-outs stand apart in the source and are kept apart here.

What was measured:
[1] = biological target: T1, human MTAP (Homo sapiens, UniProt Q13126); assay: Inhibition of human MTAP, continuous spectrophotometric assay; assay type: biochemical
T1 construct: made in house
T1 sequence (Q13126 1-283): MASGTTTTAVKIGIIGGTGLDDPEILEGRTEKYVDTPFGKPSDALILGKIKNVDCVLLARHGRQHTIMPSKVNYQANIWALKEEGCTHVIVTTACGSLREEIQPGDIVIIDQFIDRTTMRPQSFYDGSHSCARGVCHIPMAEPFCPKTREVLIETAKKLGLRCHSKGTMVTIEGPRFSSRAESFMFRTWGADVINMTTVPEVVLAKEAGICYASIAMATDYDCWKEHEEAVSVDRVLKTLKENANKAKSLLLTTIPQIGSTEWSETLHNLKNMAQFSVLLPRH
Source text: Continuous spectrophotometric assays are used to characterize the compounds of the invention and […] inhibition of MTAP.

[2] = biological target: T2, E. coli MTAN (Escherichia coli, UniProt P0AF12); assay: biochemical; assay type: biochemical
T2 construct: made in house
Experimental: After removal of cell debris by centrifugation, the soluble cell lysates are loaded onto nickel-charged chelating Sepharose (GE Healthcare) and washed with lysis buffer containing 20-150 mM imidazole. The 6His-MTANs are eluted in 250 mM imidazole, desalted using a Sephadex G-15 (GE Healthcare) gel filtration column, equilibrated with low salt buffer (100 mM HEPES, 30 mM KCL, pH 7.6) and concentrated to 40 mg/mL.
Briefly, all experiments are carried out at 25° C., in 1 mL total reaction volume containing 100 mM HEPES buffer, pH 7.5 and 50 mM KCl with 5′-deoxymethylthioadenosine (MTA) as substrate. […] For measuring dissociation constant (Kd) of inhibitors, a xanthine oxidase-coupled assay is carried out. […] Control experiments are carried out in the absence of either inhibitor or MTAN.
[formula] where vs^t and vs are steady state rates in the presence, and absence of inhibitor, respectively; Km is substrate Michaelis constant which is obtained as described above; [S] and [I] are the concentrations of the substrate MTA and inhibitor, respectively. If the concentration of inhibitor is smaller than 10-fold concentration of enzymes, the following correction is then applied: r=I′−(1−v0′/v0)Et
All data fitting is carried out with KaleidaGraph™ ver. 3.5 (Synergy Software).

[3] = read-out: Inhibition (Ki) Human MTAP
[4] = 25° C., pH 7.5, MTA as substrate, read-out: Inhibition (Ki) E. coli MTAN

| Compound | Ki [1] | other results |
| --- | --- | --- |
| CCCC[C@H]1CN(Cc2c[nH]c3c(N)ncnc23)C[C@@H]1O [Example 17, (3R,4S)-4-Butyl-1-[(9-deaza-adenin-9-yl)methyl]-3-hydroxypyrrolidine] | – | Ki [1, 3]: 0.55 ± 0.07 nM |
| CC[C@@H]1CN(Cc2c[nH]c3c(N)ncnc23)C[C@H]1O (racemic) [Example 11, (±)-trans-1-[(9-Deaza-adenin-9-yl)methyl]-4-ethyl-3-hydroxypyrrolidine] | 8.6 ± 1 nM | Ki [2]: 0.31 ± 0.02 nM |
| CC(C)C[C@@H]1CN(Cc2c[nH]c3c(N)ncnc23)C[C@H]1O (racemic) [Example 9, (±)-trans-1-[(9-Deaza-adenin-9-yl)methyl]-3-hydroxy-4-isobutylpyrrolidine] | 6 ± 0.4 nM | – |
| CCC(CC)[C@@H]1CN(Cc2c[nH]c3c(N)ncnc23)C[C@H]1O (racemic) [Example 10, (±)-trans-1-[(9-Deaza-adenin-9-yl)methyl]-3-hydroxy-4-(pent-3-yl)pyrrolidine] | > 5000 nM | Ki [2]: 0.7 ± 0.1 nM |
| CCCC[C@@H]1CN(Cc2c[nH]c3c(N)ncnc23)C[C@H]1O (racemic) [Example 8, (±)-trans-1-[(9-Deaza-adenin-9-yl)methyl]-4-butyl-3-hydroxypyrrolidine] | > 5000 nM | Ki [2, 4]: 0.051 ± 0.003 nM |
| Nc1ncnc2c(CN3C[C@@H](O)[C@H](c4c[nH]nn4)C3)c[nH]c12 (racemic) [Example 15, (±)-trans-1-[(9-Deaza-adenin-9-yl)methyl]-3-hydroxy-4-(1H-1,2,3-triazol-4-yl)pyrrolidine] | – | Ki [1, 3]: 59 ± 8 nM; Ki [2, 4]: 2 ± 0.2 nM |
| Nc1ncnc2c(CN3C[C@@H](O)[C@H](c4ccccc4)C3)c[nH]c12 (racemic) [Example 1, (±)-trans-1-[(9-Deaza-adenin-9-yl)methyl]-3-hydroxy-4-phenylpyrrolidine] | 4.3 ± 0.6 nM | – |
| Nc1ncnc2c(CN3C[C@@H](O)[C@H](c4cn(Cc5ccccc5)nn4)C3)c[nH]c12 (racemic) [Example 14, (±)-trans-4-(1-Benzyl-1H-1,2,3-triazol-4-yl)-1[(9-deaza-adenin-9-yl)methyl]-3-hydroxypyrrolidine] | – | Inhibition of Human MTAP ([1]; at 2.5 μM): ^a (indicates no inhibition observed at 2.5 μM) |
| Nc1ncnc2c(CN3C[C@@H](CCCSCc4ccccc4)[C@H](O)C3)c[nH]c12 (racemic) [Example 16, (±)-trans-4-[3-(Benzylthio)propyl]-1-[(9-deaza-adenin-9-yl)methyl]-3-hydroxypyrrolidine] | 71 ± 5 nM | Selectivity for bacterial MTAN [2]: some selectivity for bacterial MTAN |
| CC[C@H]1CN(Cc2c[nH]c3c(N)ncnc23)C[C@H]1O (racemic) [Example 18, (±)-cis-1-[(9-Deaza-adenin-9-yl)methyl]-4-ethyl-3-hydroxypyrrolidine] | 34 ± 3 nM | Ki [2, 4]: 1.8 ± 0.3 nM |
| C#C[C@@H]1CN(Cc2c[nH]c3c(N)ncnc23)C[C@H]1O (racemic) [Example 7, (±)-3,4-trans-1-[(9-Deaza-adenin-9-yl)methyl]-4-ethynyl-3-hydroxypyrrolidine] | – | Ki [1, 3]: 31 ± 3 nM; Ki [2, 4]: 0.39 ± 0.02 nM |

Further lines, with some results ahead:

| Ki [1] | Compound | other results |
| --- | --- | --- |
| 8.7 ± 1 nM | C=C[C@@H]1CN(Cc2c[nH]c3c(N)ncnc23)C[C@H]1O (racemic) [Example 5, (±)-trans-1-[(9-Deaza-adenin-9-yl)methyl]-3-hydroxy-4-vinylpyrrolidine] | – |
| 2.4 ± 0.4 nM | Nc1ncnc2c(CN3C[C@@H](O)[C@H](C4CCCC4)C3)c[nH]c12 (racemic) [Example 13, (±)-trans-4-Cyclopentyl-1-[(9-deaza-adenin-9-yl)methyl]-3-hydroxypyrrolidine] | – |
| > 5000 nM | Nc1ncnc2c(CN3C[C@@H](CC4CCCCC4)[C@H](O)C3)c[nH]c12 (racemic) [Example 2, (±)-trans-4-(Cyclohexylmethyl)-1-[(9-deaza-adenin-9-yl)methyl]-3-hydroxy-pyrrolidine] | – |
| > 5000 nM | CC[C@H]1CN(Cc2c[nH]c3c(N)ncnc23)C[C@@H]1O [Example 12] | – |
| 14.3 ± 1.7 nM | C=CC[C@@H]1CN(Cc2c[nH]c3c(N)ncnc23)C[C@H]1O (racemic) [Example 6, (±)-trans-4-Allyl-1-[(9-deaza-adenin-9-yl)methyl]-3-hydroxypyrrolidine] | – |
| 5.8 ± 0.7 nM | Nc1ncnc2c(CN3C[C@@H](O)[C@H](C4CC4)C3)c[nH]c12 (racemic) [Example 4, (±)-trans-4-Cyclopropyl-1-[(9-deaza-adenin-9-yl)methyl]-3-hydroxypyrrolidine] | – |
